This passage reports IC50 results from patent US20260070887A1 (Shenzhen Zhongge Biological Technology Co., Ltd., priority 2022, published 2026).

Where two headings read alike, the source gives them in different places.

Assay [1] addresses KIF18A (Homo sapiens (Human), UniProt Q8NI77). The experiment in a line: KIF18A ATPase activity under tubulin stimulation (ADP-Glo assay). The note with it: KIF18A 30 nM, ATP 150 μM, pig microtubules. It counts as biochemical.
In assay [2] the test system is OVCAR-3 cells. The experiment in a line: OVCAR-3 cell proliferation (Cell Titer-Glo, 10 days). It counts as cell-based, human. Here is the method: The inhibitory effect on the KIF18A target by the compounds of the present disclosure was evaluated by testing the inhibitory effect on proliferation of OVCAR-3 cells by the compounds of the present disclosure.
The following method was used to determine the effect of the compounds of the present disclosure on the proliferation of human ovarian cancer cells Ovcar-3 (HTB-161, ATCC). Cells were cultured in RPMI-1640 complete medium containing 20% fetal bovine serum, 0.01 mg/mL bovine insulin, 100 U penicillin, and 100 μg/mL streptomycin. The Promega kit Cell Titer-Glo (Cat. No. G7572) was used in this method for test.
For specific steps, reference was made to the kit instructions, and the procedure was outlined below: Test compounds were dissolved in DMSO to prepare a 10 mM stock solution, which was diluted at the predetermined test concentrations, and the test compounds at different concentrations were added to a 384-well cell test plate using ECHO. In the plate pre-added with the test compounds, 400 OVCAR-3 cells in the logarithmic growth phase were seeded per well, ensuring the final concentration of the test compounds in the reaction system ranged between 0.12 nM and 10 μM. The co-culture was maintained in a cell culture incubator for 10 days. Before testing, the cell culture plate was equilibrated for 10 minutes at room temperature, 25 μL of Cell Titer-Glo was added to each well, and the mixture was shaken and mixed well and let stand for 5 minutes. The luminescence values for samples in various wells were read using a microplate reader in Luminescence mode.
The percentage of inhibition of cell proliferation by the test compound at each concentration was calculated by comparing with the values of the control group (0.1% DMSO). The IC50 values of the compounds were obtained by concentration-inhibition rate nonlinear regression analysis of the test compounds using GraphPad Prism 9.
A general note: Cellular ATP, detected with luciferase, serves as a proxy for viable cell number.

KIF18A, sequence (Q8NI77 whole entry): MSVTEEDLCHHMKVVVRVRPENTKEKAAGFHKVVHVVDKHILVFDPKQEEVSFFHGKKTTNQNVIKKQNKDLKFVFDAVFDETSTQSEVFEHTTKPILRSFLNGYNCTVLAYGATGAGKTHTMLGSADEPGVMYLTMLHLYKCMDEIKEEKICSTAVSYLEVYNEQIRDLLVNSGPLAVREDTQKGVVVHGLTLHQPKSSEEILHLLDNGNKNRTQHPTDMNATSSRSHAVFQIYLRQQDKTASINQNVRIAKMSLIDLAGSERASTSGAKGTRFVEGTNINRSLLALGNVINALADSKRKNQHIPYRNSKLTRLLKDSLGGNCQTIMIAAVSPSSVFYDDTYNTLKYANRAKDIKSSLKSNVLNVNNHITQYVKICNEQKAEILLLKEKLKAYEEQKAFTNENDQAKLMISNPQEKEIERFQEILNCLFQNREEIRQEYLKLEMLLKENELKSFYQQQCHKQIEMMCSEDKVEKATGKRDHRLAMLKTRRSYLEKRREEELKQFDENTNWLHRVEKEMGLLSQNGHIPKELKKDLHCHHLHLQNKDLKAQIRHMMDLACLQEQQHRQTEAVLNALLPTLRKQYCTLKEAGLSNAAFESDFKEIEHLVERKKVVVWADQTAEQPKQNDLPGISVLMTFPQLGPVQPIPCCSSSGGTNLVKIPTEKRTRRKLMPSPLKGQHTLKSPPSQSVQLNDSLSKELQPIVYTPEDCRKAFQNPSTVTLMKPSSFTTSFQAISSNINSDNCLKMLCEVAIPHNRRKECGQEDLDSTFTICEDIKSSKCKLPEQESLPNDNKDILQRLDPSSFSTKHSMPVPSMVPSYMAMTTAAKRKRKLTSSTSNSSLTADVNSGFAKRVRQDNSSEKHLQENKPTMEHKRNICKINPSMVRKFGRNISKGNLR
KIF18A, sequence (P02550 whole entry partner): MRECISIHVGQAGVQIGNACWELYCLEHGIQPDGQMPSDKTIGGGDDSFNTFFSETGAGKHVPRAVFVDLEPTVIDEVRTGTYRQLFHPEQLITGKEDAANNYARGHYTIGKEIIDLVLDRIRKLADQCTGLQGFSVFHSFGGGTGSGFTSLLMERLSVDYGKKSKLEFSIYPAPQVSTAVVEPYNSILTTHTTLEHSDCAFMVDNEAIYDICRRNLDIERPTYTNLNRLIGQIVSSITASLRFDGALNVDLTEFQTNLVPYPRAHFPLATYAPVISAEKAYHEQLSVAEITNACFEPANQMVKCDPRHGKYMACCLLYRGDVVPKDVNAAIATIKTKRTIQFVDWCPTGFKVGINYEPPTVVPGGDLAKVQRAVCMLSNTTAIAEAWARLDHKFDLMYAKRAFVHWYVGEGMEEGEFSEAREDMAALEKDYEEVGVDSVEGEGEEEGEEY
KIF18A, sequence (P02554 whole entry partner): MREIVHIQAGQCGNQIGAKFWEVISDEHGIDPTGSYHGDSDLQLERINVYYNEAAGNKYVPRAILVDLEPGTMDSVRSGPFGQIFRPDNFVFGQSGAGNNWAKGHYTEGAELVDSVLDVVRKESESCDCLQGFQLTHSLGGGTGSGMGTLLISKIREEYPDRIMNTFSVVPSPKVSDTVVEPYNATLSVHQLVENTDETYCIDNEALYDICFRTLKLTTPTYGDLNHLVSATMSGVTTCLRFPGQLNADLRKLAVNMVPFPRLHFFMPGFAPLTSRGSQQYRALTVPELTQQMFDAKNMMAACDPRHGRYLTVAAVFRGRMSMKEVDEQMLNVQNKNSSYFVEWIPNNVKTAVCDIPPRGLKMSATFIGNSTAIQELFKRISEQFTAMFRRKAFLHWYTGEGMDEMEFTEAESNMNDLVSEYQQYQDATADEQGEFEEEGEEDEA

One may read the IC50 as the midpoint of a concentration-inhibition curve. On to `CCS(=O)(=O)Nc1ccc(C(=O)Nc2cccc3c2cc2n3CCC(F)(F)C2O)c(N2CCC(=C(F)F)CC2)c1` (stereo not shown) [Example 381, N-(8,8-difluoro-9-hydroxy-6,7,8,9-tetrahydropyridino[1,2-a]indol-1-yl)-2-(4-(difluoromethylene)piperidin-1-yl)-4-ethyl sulfonamidobenzamide], for which the half-maximal inhibitory concentration (IC50) in assay [1] and in assay [2] was at most 50 nM in each case.
`CC1Cn2c(cc3c(NC(=O)c4ccc(NS(=O)(=O)CCO)cc4N4CCC5(CC4)CC5)cccc32)C(C)O1` (single isomer, unassigned) [Compound 312-P2B, N-(1,3-dimethyl-3,4-dihydro-1H-[1,4]oxazino[4,3-a]indol-9-yl)-4-((2-hydroxyethyl)sulfonamido)-2-(6-azaspiro[2.5]oct-6-yl)benzamide]: the IC50 in assay [1] and in assay [2] was 50 to 500 nM throughout.
With `O=C(Nc1ccc(OC(F)(F)F)c2c1cc1n2CCC(F)(F)C1)c1ccc(NS(=O)(=O)CCO)cc1N1CCC2(CC1)CC2` [Example 582], the IC50 in assay [1] is at most 50 nM; in assay [2] (Homo sapiens, OVCAR-3, 240 h), 50 to 500 nM.
For `N#Cc1ccc(NC(=O)c2ccc(NS(=O)(=O)CCO)cc2N2CCC3(CC2)CC3)c2cc3n(c12)CCC(F)(F)C3O` (stereo not shown) [Example 438, N-(4-cyano-8,8-difluoro-9-hydroxy-6,7,8,9-tetrahydropyridino[1,2-a]indol-1-yl)-4-((2-hydroxyethyl)sulfonamido)-2-(6-azaspiro[2.5]oct-6-yl)benzamide], in that order: 50 to 500 nM and at most 50 nM.
Regarding `O=C(Nc1ccc(OC(F)F)c2c1cc1n2CCC(F)(F)C1)c1ccc(NS(=O)(=O)CCO)cc1N1CCC(=C(F)F)CC1` [Example 586], the IC50 in assay [1] was in the range of 50 to 500 nM; in assay [2] (Homo sapiens, OVCAR-3, 240 h), 50 to 500 nM.
Turning to `O=C(Nc1ccc(NS(=O)(=O)CCO)cc1N1CCC2(CC1)CC2)c1cccc2c1cc1n2CCOC1` [Example 357], the half-inhibitory concentration (IC50) was at most 50 nM in assay [1] and 50 to 500 nM in assay [2].
In the case of `O=C(Nc1cccc2c1ccn2CC1(F)CC1)c1ccc(NS(=O)(=O)CCO)cc1N1CCC2(CC1)CC2` [Example 283, N-(1-((1-fluorocyclopropyl)methyl)-1H-indol-4-yl)-4-((2-hydroxyethyl)sulfonamido)-2-(6-azaspiro[2.5]oct-6-yl)benzamide], the IC50 in assay [1] is 50 to 500 nM; in assay [2] (Homo sapiens, OVCAR-3, 240 h) it was 50 to 500 nM.
With `[2H]C([2H])([2H])Oc1ccc(NC(=O)c2ccc(NS(=O)(=O)CCO)cc2N2CCC3(CC2)CC3)c2cc3n(c12)CC(C)(C)OC3` [Example 575], the IC50 in assay [1] is 50 to 500 nM; in assay [2] (Homo sapiens, OVCAR-3, 240 h) it was at most 50 nM.
The like results for `CC1Cn2c(cc3c(NC(=O)c4ccc(NS(=O)(=O)CCO)cc4N4CCC5(CC4)CC5)cccc32)C(C)O1` (stereo not shown) [Example 312, N-(1,3-dimethyl-3,4-dihydro-1H-[1,4]oxazino[4,3-a]indol-9-yl)-4-((2-hydroxyethyl)sulfonamido)-2-(6-azaspiro[2.5]oct-6-yl)benzamide] were, in that order, 50 to 500 nM and at most 50 nM.
The like results for `O=C(Nc1cc(F)cc2c1nc1n2CCOC1)c1ccc(NS(=O)(=O)CCO)cc1N1CCC2(CC1)CC2` [Example 368, N-(7-fluoro-3,4-dihydro-1H-benzo[4,5]imidazo[2,1-c][1,4]oxazin-9-yl)-4-((2-hydroxyethyl)sulfonamido)-2-(6-azaspiro[2.5]oct-6-yl)benzamide] were, in that order, at most 50 nM and at most 50 nM.
As to `O=C(Nc1ccc(F)c2c1OCCN2CC1CC1)c1ccc(NS(=O)(=O)CCO)cc1N1CCC2(CC1)CC2` [Example 294, N-(4-(cyclopropylmethyl)-5-fluoro-3,4-dihydro-2H-benzo[b][1,4]oxazin-8-yl)-4-((2-hydroxyethyl)sulfonamido)-2-(6-azaspiro[2.5]oct-6-yl)benzamide], the IC50 in assay [1] is at most 50 nM; in assay [2] (Homo sapiens, OVCAR-3, 240 h), 500 to 5000 nM.
The like results for `CCS(=O)(=O)Nc1ccc(C(=O)Nc2cccc3c2cc2n3CCCC2O)c(N2CCC3(CC2)CC3)c1` (stereo not shown) [Example 373, 4-(ethylsulfonamido)-N-(9-hydroxy-6,7,8,9-tetrahydropyridino[1,2-a]indol-1-yl)-2-(6-azaspiro[2.5]oct-6-yl)benzamide] were, in that order, at most 50 nM and at most 50 nM.
As to `CC1Cn2c(cc3c(NC(=O)c4ccc(NS(=O)(=O)CCO)cc4N4CCC5(CC4)CC5)cccc32)C(C)O1` (single isomer, unassigned) [Compound 312-P1, N-(1,3-dimethyl-3,4-dihydro-1H-[1,4]oxazino[4,3-a]indol-9-yl)-4-((2-hydroxyethyl)sulfonamido)-2-(6-azaspiro[2.5]oct-6-yl)benzamide], the IC50 in assay [1] fell in the range of 50 to 500 nM; in assay [2] (Homo sapiens, OVCAR-3, 240 h), 50 to 500 nM.
In the case of `COc1ccc(NC(=O)c2ccc(NS(=O)(=O)CCO)cc2N2CCC(=C(F)F)CC2)c2nc3n(c12)CC(C)(C)OC3` [Example 489], the IC50 in assay [1] was 50 to 500 nM; in assay [2] (Homo sapiens, OVCAR-3, 240 h), at most 50 nM.
Take `O=C(Nc1cccc2c1CC1CCCN21)c1ccc(NS(=O)(=O)CCO)cc1N1CCC2(CC1)CC2` (stereo not shown) [Example 130, 4-((2-hydroxyethyl)sulfonamide)-2-(6-azaspiro[2.5]octan-6-yl)-N-(2,3,9,9a-tetrahydro-1H-pyrrolo[1,2a]indol-8-yl)benzamide]: the IC50 in assay [1] was at most 50 nM; in assay [2] it was 50 to 500 nM.
For `O=C(Nc1ccc2c(c1)N1CCC(F)(F)CC1CO2)c1ccc(NS(=O)(=O)CCO)cc1N1CCC(=C(F)F)CC1` (stereo not shown) [Compound 399], the IC50 in assay [1] fell in the range of 50 to 500 nM; in assay [2] (Homo sapiens, OVCAR-3, 240 h) it was 500 to 5000 nM.
`Cc1ccc(NC(=O)c2ccc(NS(=O)(=O)CCO)cc2N2CCC(=C(F)F)CC2)c2cc3n(c12)CC(C)(C)OC3` [Example 526]: the half-maximal inhibitory concentration (IC50) in assay [1] is 50 to 500 nM; in assay [2] (Homo sapiens, OVCAR-3, 240 h), 50 to 500 nM.
For the molecule `O=C(Nc1cc(F)cc2c1cc1n2CCOC1)c1ccc(NS(=O)(=O)CCO)cc1N1CCC(=C(F)F)CC1` [Example 367, 2-(4-(difluoromethylene)piperidin-1-yl)-N-(7-fluoro-3,4-dihydro-1H-[1,4]oxazino[4,3-a]indol-9-yl)-4-((2-hydroxyethyl)sulfonamido)benzamide], the IC50 in assay [1] was at most 50 nM; in assay [2] (Homo sapiens, OVCAR-3, 240 h), 50 to 500 nM.
On to `CCS(=O)(=O)Nc1ccc(C(=O)Nc2cccc3c2cc2n3CCC(F)(F)C2O)c(N2CCC3(CC2)CC3)c1` (stereo not shown) [Compound 382, N-(8,8-difluoro-9-hydroxy-6,7,8,9-tetrahydropyridino[1,2-a]indol-1-yl)-4-ethyl sulfonamido-2-(6-azaspiro[2.5]octan-6-yl)benzamide], for which the IC50 in assay [1] and in assay [2] was at most 50 nM in each case.
As to `O=C(Nc1cccc2c1cnn2CC1CC1)c1ccc(NS(=O)(=O)CCO)cc1N1CCC2(CC1)CC2` [Example 287, N-(1-(cyclopropylmethyl)-1H-indazol-4-yl)-4-(2-hydroxyethylsulfonamido)-2-(6-azaspiro[2.5]octan-6-yl)benzamide], the IC50 in assay [1] was 50 to 500 nM; in assay [2] (Homo sapiens, OVCAR-3, 240 h), 50 to 500 nM.
Take `CC(C)Oc1ccc(NC(=O)c2ccc(NS(=O)(=O)CCO)cc2N2CCC(=C(F)F)CC2)c2cc3n(c12)CC(C)(C)OC3` [Example 532, 2-(4-(difluoromethylene)piperidin-1-yl)-4-((2-hydroxyethyl)sulfonamido)-N-(6-isopropoxy-3,3-dimethyl-3,4-dihydro-1H-[1,4]oxazinyl[4,3-a]indol-9-yl)benzamide]: the half-maximal inhibitory concentration (IC50) in assay [1] and in assay [2] was 50 to 500 nM in each case.
For `CCNC(=O)c1ccc(NC(=O)c2ccc(NS(=O)(=O)CCO)cc2N2CCC3(CC2)CC3)c2cc3n(c12)CC(C)(C)OC3` [Example 527], the concentration for half-maximal inhibition (IC50) in assay [1] was 50 to 500 nM; in assay [2] (Homo sapiens, OVCAR-3, 240 h), at most 50 nM.
In the case of `CC1Cn2c(nc3c(NC(=O)c4ccc(NS(=O)(=O)CCO)cc4N4CCC5(CC4)CC5)ccc(F)c32)C(C)O1` (stereo not shown) [Example 445, 2-(6-azaspiro[2.5]oct-6-yl)-N-(6-fluoro-1,3-dimethyl-3,4-dihydro-1H-benzo[4,5]imidazo[2,1-c][1,4]oxazin-9-yl)-4-{[(2-hydroxyethyl)sulfonamide]}benzamide], the IC50 in assay [1] and in assay [2] was at most 50 nM throughout.
For `COc1ccc(C(=O)Nc2ccc(NS(=O)(=O)CCO)cc2N2CCC3(CC2)CC3)c2cc3n(c12)CC(C)(C)OC3` [Example 565], the results for the IC50 in assay [1] and in assay [2] were 50 to 500 nM and at most 50 nM, respectively.
Turning to `[2H]C([2H])([2H])Oc1ccc(NC(=O)c2ccc(NS(=O)(=O)CCO)cc2N2CCC(=C(F)F)CC2)c2cc3n(c12)CC(C)(C)OC3` [Example 576], the 50% inhibitory concentration (IC50) in assay [1] was 50 to 500 nM; in assay [2] (Homo sapiens, OVCAR-3, 240 h), at most 50 nM.
For the molecule `O=C(Nc1cccc2c1ccn2CC1CC1(F)F)c1ccc(NS(=O)(=O)CCO)cc1N1CCC2(CC1)CC2` (stereo not shown) [Example 286, N-(1-((2,2-difluorocyclopropyl)methyl)-1H-indol-4-yl)-4-((2-hydroxyethyl)sulfonamido)-2-(6-azaspiro[2.5]oct-6-yl)benzamide], the IC50 is at most 50 nM in assay [1] and 50 to 500 nM in assay [2] (Homo sapiens, OVCAR-3, 240 h).
